Each structure is given as a SMILES string.

The nature of this series: Oxidation stability of reduced coenzyme Q10 solubilized with a surfactant during air storage. To be noted: for period of stable storage: 0.05% by weight reduced coenzyme Q10, air storage at 23° C. (FIG. 4). The series is classed as physicochemical. The method, then: A solution of reduced coenzyme Q10 using a surfactant was prepared by the method described below, and the oxidation stability under storage was evaluated. As the surfactant, Polysolvate 80 (Tween 80) or polyoxyethylene hardened castor oil (HCO 60) was used, and an aqueous solution of 1% by weight or 0.1% by weight of the surfactant was prepared. Then, the reduced coenzyme Q10 was added to the aqueous solution so that the final concentration of the solution was 0.05% by weight. […] In FIG. 4, each value is an average with n=2. […] The results of this test indicate that with a surfactant concentration of 0.1% by weight, the reduced coenzyme Q10 can be stably stored at 23° C. for about 1 month. […] Therefore, when preparing a solution or emulsion with a surfactant, the concentration of the surfactant used is decreased to prepare a solution which can be stored for a longer period of time. A solution or emulsion with 1% by weight or more of a surfactant can be used under conditions in which the solution or emulsion is prepared before use, or the solution or emulsion is stored for a short period or stored in an airtight condition such as a completely anaerobic condition.

Take `COc1c(O)c(C)c(C/C=C(\C)CC/C=C(\C)CC/C=C(\C)CC/C=C(\C)CC/C=C(\C)CC/C=C(\C)CC/C=C(\C)CC/C=C(\C)CC/C=C(\C)CCC=C(C)C)c(O)c1OC` [reduced coenzyme Q10]: the “period of stable storage” value runs as follows: (surfactant (Tween 80 or HCO 60) concentration 0.1% by weight) “about 1 month”; (surfactant (Tween 80 or HCO 60) concentration 1% by weight) 1 week. Further, the “oxidation after the stable period (in words)” value (surfactant concentration 1% by weight, after 1 week of air storage at 23° C.) was “rapidly oxidized”.

The values above are taken from US20090087420A1, “STABLE SOLUTION OF REDUCED COENZYME Q” (Kaneka Corporation, priority 2001, published 2009).
